From paper PMC10974622, “Hybrid Peptide-Alkoxyamine Drugs: A Strategy for the Development of a New Family of Antiplasmodial Drugs” (Molecules, 2024)
Where two headings read alike, the source gives them in different places.

Experiments:
[1] = test system: P. falciparum strain F32-ART (artemisinin-resistant); experiment: microbe, parasite or virus in culture; format: cell-based, Plasmodium falciparum; conditions: for IC50: Plasmodium falciparum; for Selectivity Index CC50/IC50: cytotoxicity (Vero cells)/antiplasmodial activity (F32-ART) ratio
Source text: The antimalarial activity of peptide-alkoxyamine hybrids was first evaluated in the in vitro antiproliferative test (IC50) using the artemisinin-resistant strain F32-ART (Table 2, Table S1). The roles of the N-substitution of the alkoxyamine moiety (TEMPO- or DBNO-based, for example, A3L/A8L, line 1/line 10), of the configuration (L or D of the peptide, A3L/A3D, line 1/line 2), of the N-protection of the peptide (A3L/A4L or A5L, line 1/ lines 3 and 5) were examined. According to standard rules in the malaria field, only molecules having IC50 values below 1 μM were considered active.
The F32-ART (artemisinin-resistant) strain and the F32-TEM (artemisinin-sensitive strain) were cultured according to Trager and Jensen in RPMI 1640 medium (Fisher Scientific, Illkirch, France) supplemented with 5% human serum (Etablissement français du Sang, Toulouse, France) at 2% hematocrit with type O human blood (Etablissement français du Sang, Toulouse, France), 37 °C, and 5% CO2 in a humidified atmosphere.
(§1) IC50 values corresponding to 50% inhibition of P. falciparum growth were determined by SYBR Green assay, and the assessment of cytotoxicity was performed on Vero cells (cell line from the kidney of a normal adult African green monkey), as previously published. The selectivity index corresponded to the cytotoxicity/activity ratio.

chymotrypsin = target: T1, chymotrypsin (Bos taurus, UniProt P00766); experiment: Enzymatic activation and homolysis monitored by EPR, chymotrypsin; format: biochemical; conditions: 37 °C
T1 construct: purchased Worthington
Method: Due to the low solubility of A3L/D–A5L/D in water, suitable concentrations (ca. 0.1 mM) for EPR detection could not be reached. Thus, A7L was prepared, which afforded a carboxylate function at a physiological pH. […] As other PLMs were not available, chymotrypsin, a pancreatic protease that accepts substrates with Phe in the P1 position, was used to hydrolyse A7L. The release of the free alkoxyamine, which decomposed spontaneously and rapidly into alkyl radical R3• and nitroxide R1R2NO•, and the concentration in nitroxide was monitored with EPR (Figure 3).
Kinetics were performed in HEPES 50 mM buffer containing […] at 37 °C. Then, 2.5 mM of hemin (Santa Cruz biotechnology, Heidelberg, Germany) was added to scavenge the alkyl radicals. In one, kinetic Chymotrypsin (Worthington, OH, USA) was added. Activation and homolysis were monitored by reading the concentrations of released TEMPO using, versus time, a calibrated EPR spectrometer (EMX Nano, Bruker, Wissembourg, France).

Vero cells = conditions: cited from earlier work
PLM I = PLM I (Plasmodium falciparum, UniProt P39898); experiment: Enzymatic activation monitored by EPR, PLM I; format: biochemical
Solubility in water = format: physicochemical
[2] = test system: F32-ART parasites at the quiescent stage; experiment: Quiescent-stage Survival Assay (QSA); format: cell-based, Plasmodium falciparum; conditions: 700 nM DHA 6 h/(DHA + molecule 7 µM) 48 h
Method: In this assay, parasites were exposed to dihydroartemisinin (DHA) alone to induce quiescence, prior the addition of the drug to be tested for 48 h, and then the parasite recrudescence was monitored over a maximum of 4 weeks. Activity against quiescent parasites was evidenced by a delay in recrudescence time over 6 days between the conditions “DHA 6 h / DHA 48 h” and “DHA 6 h/(DHA + molecule) 48 h”. Atovaquone was used as a positive control, and its activity against quiescent parasites was here confirmed, as expected, by an extended delay of 11 days in recrudescence time (Figure 5). By contrast, no activity of A8L and A3L against quiescent parasites was evidenced in the QSA, with similar recrudescence time between the conditions “DHA 6 h/DHA 48 h” and “DHA 6 h/(DHA + molecule) 48 h”. […] To understand this phenomenon, we explored the parasite response during treatment with these hybrid compounds.
The QSA was performed according to Reyser et al.. Briefly, ART-resistant ring-stage parasites at 3% parasitemia were exposed for 6 h to 700 nM of DHA (dihydroartemisinin) to induce quiescence or were exposed to no drugs (control condition). After that, the compound to be tested was added in both conditions […]. At the end of the treatment, the drugs were washed off with RPMI-1640, and parasites were replaced in drug-free conditions. Blood smears were performed to follow parasitemia until the day the cultures reached their starting parasitemia, defined as the recrudescence day. If after 30 days no parasite recrudescence was observed, then the data were censored. Data analysis was performed using Kaplan–Meier survival curves. Statistical significance was ascertained by using a log-rank (Mantel-Cox) test using GraphPad Prism 7 software (San Diego, CA, USA).

[3] = Kinetic analysis of alkoxyamine bond homolysis by EPR; format: physicochemical; conditions: Equation (2), A = 2.4 · 10^14 s^−1
Method: The kinetic homolysis for peptide-alkoxyamines reported in Table 1 was recorded in EPR using two solvents, tert-butylbenzene (t-BuPh) or an n-propanol:water (1:1, v:v) mixture. The growth of nitroxide was recorded in the presence of an alkyl radical scavenger, i.e., O2 here, to suppress the back reaction (kc in Scheme 4), as already reported.
Homolysis rate constants kd are given by Equation (1) ([nitroxide]∞ = [alkoxyamine]0 = 0.1 mM), and the subsequent activation energy values Ea are given by Equation (2), as follows:(1) lnnitroxide∞−nitroxidet/nitroxide∞=−kd·t (2) Ea=−RTlnkd/A

[4] = test system: F32-TEM parasites (artemisinin-sensitive); experiment: Parasitemia monitoring with different treatment schedules, F32-TEM parasites; format: cell-based, Plasmodium falciparum
F32-ART parasites = experiment: Parasitemia monitoring and parasite morphology upon drug exposure, F32-ART ring-stage parasites; format: cell-based, Plasmodium falciparum; conditions: 48 h exposure
Method: (§2) The effect of hybrid compounds against Plasmodium parasites was assessed by the microscopic examination of parasite morphology upon drug exposure. For this purpose, parasites were synchronized at 0–4 h age by percoll-sorbitol treatment, 0–24 h age by sorbitol treatment, or at schizont stage by percoll treatment at the start of the experiment. Different treatment schedules were tested. In the case of multiple doses, parasite cultures were washed before each new drug addition.

[5] = Thermolysis of A8L in DMSO with or without hemin, LC-MS; format: physicochemical; conditions: 80 °C, 1 h
Method: Since a putative antimalarial mechanism of action of these hybrid drugs was the alkylation of heme within the parasite food vacuole, the reactivity of the hybrid having the lower IC50 value, namely A8L (Table 2), was evaluated in the presence (or absence) of heme. In the absence of any protease activity able to cleave the tripeptide fragment, the alkoxyamine C–O bond was stable at room temperature; thus, thermolysis was carried out in DMSO at 80 °C for 1 h under an air atmosphere to achieve a nearly complete reaction (88–90% of conversion of A8L). The reaction was monitored by LC-MS analysis, and products A–F were detected and quantified (Figure 4). […] Products B, C, and D, resulting from the capture of dioxygen by the alkyl radical, were the major ones, with yields of 30%, 13%, and 21%, respectively, with respect to the starting amount of A8L. B and C have already been detected as thermolysis products of uncoupled alkoxyamine.
In a test tube equipped with a magnetic stirrer, 20 μL of a stock solution of A8L (10 mM in DMSO) was added to 180 μL of DMSO. […] Retention times and detected m/z values (amu) were as follows: JP2310, 20.8 min, 758.5 (MH^+), 702.4 (fragment); A, 27.4 min, 615.4 (MH^+); B, 21.2 min, 629.3 (MH^+); C, 20.1 min, 631.4 (MH^+); D, 20.3 min, 647.3 (MH^+); F, 25.7 min, 613.3 (MH^+); hemin, 17.3 min, 616.2 (M^+).

[6] = test system: P. falciparum parasites at the schizont stage; experiment: Efficacy on the re-invasion step, post-percoll schizonts treated 15 h; format: cell-based, Plasmodium falciparum
Method: We wondered if this activity was due to a specific effect of the drug toward the schizont stage and re-invasion step of the parasite life cycle. However, treatment of parasites at the schizont stage for 15 h with A8L had no effect on parasite viability or development (Figure 8), highlighting that the mechanism of action of A8L has yet to be identified.
as §2

in vitro = format: cell-based, African green monkey; conditions: African green monkey, Cytotoxicity CC50
Method: as §1

[7] = F32, read-out: Antiplasmodial Activity IC50, strain F32-ART, SYBR Green assay, mean ± SEM of 3 to 6 experiments

PLM I, sequence (P39898 124-452): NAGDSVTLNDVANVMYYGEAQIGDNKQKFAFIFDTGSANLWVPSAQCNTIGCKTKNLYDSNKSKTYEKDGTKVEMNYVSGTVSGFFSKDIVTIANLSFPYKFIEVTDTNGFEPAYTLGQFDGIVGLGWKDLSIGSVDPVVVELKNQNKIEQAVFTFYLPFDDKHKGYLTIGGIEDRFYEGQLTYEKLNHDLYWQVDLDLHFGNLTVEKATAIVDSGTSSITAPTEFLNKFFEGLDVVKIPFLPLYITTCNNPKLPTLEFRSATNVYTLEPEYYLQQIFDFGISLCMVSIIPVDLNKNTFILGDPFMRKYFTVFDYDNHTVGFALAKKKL

Row | SMILES | IC50 [1, 7] [nM] | Selectivity Index CC50/IC50 [1] | stability of the prodrug (chymotrypsin; absence of chymotrypsin) | activation by protease, release of nitroxide (EPR) (chymotrypsin; presence of chymotrypsin, HEPES buffer) | CC50 (Vero cells) [nM] | EPR signal of TEMPO in the presence of PLM I (PLM I) | pH above which soluble (Solubility in water) | activity against quiescent parasites in the QSA [2] | activation energy Ea ([3]; in t-BuPh) [kcal/mol] | activation energy Ea ([3]; in water/n-PrOH 1/1 v/v) [kcal/mol] | IC50 ([1]; F32, read-out: Antiplasmodial IC50, strain F32-ART) [nM] | effect on parasite cell cycle ([4]; F32-TEM, 5 µM 48 h) | effect of repeated exposure for at least three days ([4]; once or twice a day for three days) | effect on parasitemia and parasite cell cycle (F32-ART parasites) | conversion of A8L on thermolysis ([5]; A8L/hemin molar ratio 1/1) | conversion of A8L on thermolysis ([5]; air, absence of hemin) | effect on parasite viability or development [6] | CC50 (in vitro) [nM]
1 | CC(ON1C(C)(C)CCCC1(C)C)c1ccc(NC(=O)[C@H](Cc2ccccc2)NC(=O)[C@@H](NC(=O)[C@H](Cc2ccccc2)NC(=O)CCC(=O)O)C(C)C)cc1 (stereo partly drawn) [A7L, suc-Phe-Val-Phe-anilide-TEMPO] | 5000 ± 3000 | >10 | stable at 37 °C | activatable by chymotrypsin | > 50000 | no EPR signal of TEMPO could be observed | above 5.5 |  |  |  |  |  |  |  |  |  |  | 
2 | CC(ON(C(C)(C)C)C(C)(C)C)c1ccc(NC(=O)[C@H](Cc2ccccc2)NC(=O)[C@@H](NC(=O)[C@H](Cc2ccccc2)NC(=O)OC(C)(C)C)C(C)C)cc1 (some centres unmarked) [A8L] | 270 ± 40 | >185 |  |  |  |  |  | no activity | 28.9 | 28.9 | 300 | cytostatic-like effect | elimination of parasites in a dose-dependent manner | cytostatic-like effect | 88–89% | 88–90% | no effect | > 50000
